Measurements reported in paper PMC12150293 (RSC Advances, 2025).
Like-named read-outs stand apart in the source and are kept apart here.

Tests used:
[1] = system: MDA-MB-231 cells; test: MTT cytotoxicity assay on breast cancer cells; conditions: for IC50: read-out: MDA-MB-231 IC50
[2] = system: A549 cells; test: MTT cytotoxicity assay on non-small cell lung cancer cells; conditions: for IC50: read-out: A549 IC50
[3] = system: miRNA-200c; test: miRNA-200c expression in A549 cells; assay type: cell-based, human; conditions: enhancement
[4] = system: caspase-9; test: Caspase-9 activation assay; assay type: cell-based, human; conditions: A549 cells, compound at its IC50 concentration, 48 h
[5] = system: c-Myc; test: mRNA expression; assay type: cell-based, human; conditions: MDA-MB-231 cells; reduction to
[6] = system: caspase-3; test: Caspase-3 activation assay; assay type: cell-based, human; conditions: A549 cells, compound at its IC50 concentration, 48 h
[7] = system: TGF; test: mRNA expression; assay type: cell-based, human; conditions: A549 cells
[8] = molecular target: EGFR^L858R/T790M/C797S (Homo sapiens, UniProt P00533, C797S/L858R/T790M); test: biochemical
Chain of EGFR^L858R/T790M/C797S (P00533 25-1210 T790M/C797S/L858R): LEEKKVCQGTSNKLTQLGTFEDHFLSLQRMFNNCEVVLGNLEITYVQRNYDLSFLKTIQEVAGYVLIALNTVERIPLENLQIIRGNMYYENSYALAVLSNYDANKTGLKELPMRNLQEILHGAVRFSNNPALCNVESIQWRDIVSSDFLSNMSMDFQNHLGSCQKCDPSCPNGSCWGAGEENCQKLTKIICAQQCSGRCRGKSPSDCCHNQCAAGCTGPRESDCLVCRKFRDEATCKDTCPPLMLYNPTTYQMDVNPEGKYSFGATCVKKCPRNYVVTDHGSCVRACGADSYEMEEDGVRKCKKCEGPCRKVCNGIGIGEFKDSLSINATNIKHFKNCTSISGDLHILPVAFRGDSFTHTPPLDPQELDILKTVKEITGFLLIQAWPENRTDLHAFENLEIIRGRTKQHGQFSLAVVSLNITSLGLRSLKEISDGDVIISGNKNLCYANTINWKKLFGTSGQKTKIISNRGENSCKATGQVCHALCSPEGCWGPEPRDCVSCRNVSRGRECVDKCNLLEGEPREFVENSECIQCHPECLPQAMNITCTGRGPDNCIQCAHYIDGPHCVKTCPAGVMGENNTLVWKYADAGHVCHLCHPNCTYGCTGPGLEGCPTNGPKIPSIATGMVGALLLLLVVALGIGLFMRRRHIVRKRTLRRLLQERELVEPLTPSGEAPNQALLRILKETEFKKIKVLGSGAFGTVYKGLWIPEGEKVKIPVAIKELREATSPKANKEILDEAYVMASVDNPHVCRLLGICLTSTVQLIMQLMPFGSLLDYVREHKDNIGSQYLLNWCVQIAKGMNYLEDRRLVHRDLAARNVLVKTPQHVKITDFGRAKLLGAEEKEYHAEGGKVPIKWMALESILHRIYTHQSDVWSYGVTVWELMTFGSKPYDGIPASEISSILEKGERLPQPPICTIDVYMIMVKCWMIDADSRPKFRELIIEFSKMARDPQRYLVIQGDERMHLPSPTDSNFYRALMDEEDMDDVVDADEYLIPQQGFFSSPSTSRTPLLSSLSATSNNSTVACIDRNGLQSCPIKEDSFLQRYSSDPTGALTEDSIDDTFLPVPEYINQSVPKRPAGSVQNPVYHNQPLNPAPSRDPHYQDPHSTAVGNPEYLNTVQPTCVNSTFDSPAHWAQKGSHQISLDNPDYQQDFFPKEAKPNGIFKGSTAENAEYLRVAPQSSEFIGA

[9] = system: CD-44; test: mRNA expression; assay type: cell-based, human; conditions: MDA-MB-231 cells; reduction to
[10] = molecular target: EGFR^WT (Homo sapiens, UniProt P00533); test: EGFR^WT kinase inhibition assay; assay type: biochemical
Chain of EGFR^WT (P00533 25-1210): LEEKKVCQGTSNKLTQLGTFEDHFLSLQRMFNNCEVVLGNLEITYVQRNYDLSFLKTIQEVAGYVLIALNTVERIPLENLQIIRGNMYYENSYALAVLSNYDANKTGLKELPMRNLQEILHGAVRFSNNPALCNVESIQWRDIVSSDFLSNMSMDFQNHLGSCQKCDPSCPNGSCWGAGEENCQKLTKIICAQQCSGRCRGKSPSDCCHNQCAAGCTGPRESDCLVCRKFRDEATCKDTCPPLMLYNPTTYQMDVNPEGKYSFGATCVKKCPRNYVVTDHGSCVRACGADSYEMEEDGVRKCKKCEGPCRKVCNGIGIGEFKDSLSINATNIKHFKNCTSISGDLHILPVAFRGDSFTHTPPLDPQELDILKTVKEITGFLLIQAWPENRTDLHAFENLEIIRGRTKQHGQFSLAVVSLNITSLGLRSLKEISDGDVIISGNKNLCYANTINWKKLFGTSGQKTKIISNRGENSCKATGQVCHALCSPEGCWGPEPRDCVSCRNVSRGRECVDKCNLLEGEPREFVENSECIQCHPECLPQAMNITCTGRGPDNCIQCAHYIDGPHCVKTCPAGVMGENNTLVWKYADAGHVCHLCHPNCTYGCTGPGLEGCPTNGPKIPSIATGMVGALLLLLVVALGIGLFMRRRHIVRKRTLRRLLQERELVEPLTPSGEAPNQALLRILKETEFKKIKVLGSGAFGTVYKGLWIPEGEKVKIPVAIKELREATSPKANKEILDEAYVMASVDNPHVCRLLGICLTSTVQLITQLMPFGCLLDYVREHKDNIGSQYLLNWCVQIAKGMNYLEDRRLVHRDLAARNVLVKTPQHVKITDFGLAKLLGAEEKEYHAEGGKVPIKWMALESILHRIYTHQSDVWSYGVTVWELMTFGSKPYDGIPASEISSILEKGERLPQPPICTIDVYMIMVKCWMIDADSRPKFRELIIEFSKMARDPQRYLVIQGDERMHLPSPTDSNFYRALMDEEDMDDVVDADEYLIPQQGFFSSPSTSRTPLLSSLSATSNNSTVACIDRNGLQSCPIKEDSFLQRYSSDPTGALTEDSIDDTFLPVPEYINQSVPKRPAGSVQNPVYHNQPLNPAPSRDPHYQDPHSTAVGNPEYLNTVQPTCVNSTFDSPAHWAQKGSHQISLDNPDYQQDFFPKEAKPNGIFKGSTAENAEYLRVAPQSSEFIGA

[11] = system: TGF; test: mRNA expression; assay type: cell-based, human; conditions: MDA-MB-231 cells; reduction to
[12] = system: VEGF; test: mRNA expression; assay type: cell-based, human; conditions: MDA-MB-231 cells; reduction to
[13] = system: BEAS-2B cells; test: MTT cytotoxicity assay on normal human lung epithelial cells; conditions: 48 h, read-out: BEAS-2B IC50
[14] = system: miRNA-132; test: miRNA-132 expression in MDA-MB-231 cells; assay type: cell-based, human; conditions: elevation
[15] = system: CD-133; test: mRNA expression; assay type: cell-based, human; conditions: MDA-MB-231 cells; reduction to
[16] = system: c-Myc; test: mRNA expression; assay type: cell-based, human; conditions: A549 cells
[17] = system: miRNA-200c; test: miRNA-200c expression in MDA-MB-231 cells; assay type: cell-based, human; conditions: elevation
[18] = system: miRNA-132; test: miRNA-132 expression in A549 cells; assay type: cell-based, human; conditions: enhancement

| Structure (SMILES) | IC50 ([1]; Homo sapiens, MDA-MB-231, 48 h) [µM] | IC50 [13] [µM] | IC50 ([2]; Homo sapiens, A549, 48 h) [µM] | further results |
| --- | --- | --- | --- | --- |
| N.N.[Cl][Pt][Cl] [Cisplatin, cisplatin, reference compound] | – | – | – | IC50 ([1]; MTT assay, 48 h, mean ± SEM): 12.2 ± 0.8 µM; IC50 ([2]; MTT assay, 48 h, mean ± SEM): 10.1 ± 0.7 µM |
| O=C(Nc1ccc([N+](=O)[O-])cc1)C(c1ccc(C(F)(F)F)cc1)N(C(=O)c1ccccc1Cl)c1ccccc1 (stereo not shown) [Compound 5, 2-Chloro-N-(2-((4-nitrophenyl)amino)-2-oxo-1-(4-(trifluoromethyl)phenyl)ethyl)-N-phenylbenzamide] | 10.1 ± 0.6 | 70.4 ± 5.1 | 6.2 ± 0.3 | miRNA-200c expression, fold change compared to control [3]: 1.9 fold; upregulation of caspase-9 compared to the untreated control [4]: 2.3 folds; expression of c-Myc compared to untreated control [5]: 0.36 fold; upregulation of caspase-3 compared to the untreated control [6]: 1.8 folds; fold reduction in the expression of TGF in comparison to untreated control [7]: 0.69 fold; IC50 [8]: 0.19 ± 0.05 µM; expression of CD-44 compared to untreated control [9]: 0.5 fold; fold more potent than 5-FU ([1]; MDA-MB-231 cells, ratio of IC50 values): 1.42 fold; IC50 [10]: 0.0021 ± 1e-05 µM; expression of TGF compared to untreated control [11]: 0.4 fold; expression of VEGF compared to untreated control [12]: 0.5 fold; fold more potent than 5-FU ([2]; A549 cells, ratio of IC50 values): 1.82 fold; miRNA-132 expression, fold change compared to control [14]: 3.8 fold; expression of CD-133 compared to untreated control [15]: 0.7 fold; fold reduction in the expression of c-Myc in comparison to untreated control [16]: 0.41 fold; miRNA-200c expression, fold change compared to control [17]: 3.1 fold; miRNA-132 expression, fold change compared to control [18]: 2.4 fold |
| O=c1[nH]cc(F)c(=O)[nH]1 [Compound 5-FU, 5-fluorouracil, reference compound] | 14.4 ± 0.9 | 7.2 ± 0.5 | 11.3 ± 1.1 | – |
| Cc1ccc(N(C(=O)c2ccccc2Cl)C(C(=O)Nc2ccc([N+](=O)[O-])cc2)c2ccc(C(F)(F)F)cc2)cc1 (stereo not shown) [Compound 6, 2-Chloro-N-(2-((4-nitrophenyl)amino)-2-oxo-1-(4-(trifluoromethyl)phenyl)-ethyl)-N-(p-tolyl)benzamide] | 54.2 ± 4.7 | 50.1 ± 3.6 | 39.9 ± 2.7 | – |
| O=C(Nc1ccc([N+](=O)[O-])cc1)C(c1ccc(C(F)(F)F)cc1)N(C(=O)c1ccccc1I)c1ccccc1 (stereo not shown) [Compound 7, 2-Iodo-N-(2-((4-nitrophenyl)amino)-2-oxo-1-(4-(trifluoromethyl)phenyl)ethyl)-N-phenyl-benzamide] | 28.2 ± 1.4 | 75.6 ± 5.8 | 20.6 ± 1.5 | – |
| Cc1ccc(N(C(=O)c2ccccc2I)C(C(=O)Nc2ccc([N+](=O)[O-])cc2)c2ccc(C(F)(F)F)cc2)cc1 (stereo not shown) [Compound 8, 2-Iodo-N-(2-((4-nitrophenyl)amino)-2-oxo-1-(4-(trifluoromethyl)phenyl)ethyl)-N-(p-tolyl)-benzamide] | 27.1 ± 1.8 | 62.2 ± 4.2 | 20.5 ± 1.1 | – |
| O=C(Nc1ccc([N+](=O)[O-])cc1)C(c1ccc(C(F)(F)F)cc1)N(C(=O)Cc1ccccc1)c1ccccc1 (stereo not shown) [Compound 9, 2-(N,2-Diphenylacetamido)-N-(4-nitrophenyl)-2-(4-(trifluoromethyl)phenyl)acetamide] | 70.6 ± 6.1 | 71.6 ± 5.7 | 46.4 ± 2.8 | – |
| Cc1ccc(N(C(=O)Cc2ccccc2)C(C(=O)Nc2ccc([N+](=O)[O-])cc2)c2ccc(C(F)(F)F)cc2)cc1 (stereo not shown) [Compound 10, N-(4-Nitrophenyl)-2-(2-phenyl-N-(p-tolyl)acetamido)-2-(4-(trifluoromethyl)phenyl)-acetamide] | 84.4 ± 6.9 | 83.3 ± 6.8 | 71.5 ± 6.8 | – |
| O=C(NCC(=O)N(c1ccccc1)C(C(=O)Nc1ccc([N+](=O)[O-])cc1)c1ccc(C(F)(F)F)cc1)c1ccccc1 (stereo not shown) [Compound 11, N-(2-((2-((4-Nitrophenyl)amino)-2-oxo-1-(4-(trifluoromethyl)phenyl)ethyl)(phenyl)amino)-2-oxoethyl)benzamide] | 60.2 ± 4.9 | 82.1 ± 7.3 | 53.9 ± 4.4 | – |
| Cc1ccc(N(C(=O)CNC(=O)c2ccccc2)C(C(=O)Nc2ccc([N+](=O)[O-])cc2)c2ccc(C(F)(F)F)cc2)cc1 (stereo not shown) [Compound 12, N-(2-((2-((4-Nitrophenyl)amino)-2-oxo-1-(4-(trifluoromethyl)phenyl)ethyl)(p-tolyl)amino)-2-oxoethyl)benzamide] | 65.3 ± 4.7 | 98.2 ± 8.1 | 73.1 ± 6.6 | – |
| O=C(Nc1ccc([N+](=O)[O-])cc1)C(c1ccc(C(F)(F)F)cc1)N(C(=O)CNS(=O)(=O)c1ccccc1)c1ccccc1 (stereo not shown) [Compound 13, N-(4-Nitrophenyl)-2-(N-phenyl-2-(phenylsulfonamido)acetamido)-2-(4-(trifluoromethyl)-phenyl)acetamide] | 73.9 ± 5.3 | 98.5 ± 7.4 | 64.1 ± 5.9 | – |
| Cc1ccc(N(C(=O)CNS(=O)(=O)c2ccccc2)C(C(=O)Nc2ccc([N+](=O)[O-])cc2)c2ccc(C(F)(F)F)cc2)cc1 (stereo not shown) [Compound 14, N-(4-Nitrophenyl)-2-(2-(phenylsulfonamido)-N-(p-tolyl)acetamido)-2-(4-(trifluoromethyl)-phenyl)acetamide] | 74.8 ± 6.1 | 84.7 ± 6.9 | 55.3 ± 4.2 | – |
| O=C(Nc1ccc([N+](=O)[O-])cc1)C(c1ccc(C(F)(F)F)cc1)N(Cc1ccccc1)C(=O)Cc1ccccc1 (stereo not shown) [Compound 15, N-Benzyl-N-(2-((4-nitrophenyl)amino)-2-oxo-1-(4-(trifluoromethyl)phenyl)-ethyl)-2-phenyl-acetamide] | 65.7 ± 5.4 | 69.4 ± 4.7 | 61.1 ± 4.5 | – |
| O=C(NCC(=O)N(Cc1ccccc1)C(C(=O)Nc1ccc([N+](=O)[O-])cc1)c1ccc(C(F)(F)F)cc1)c1ccccc1 (stereo not shown) [Compound 16, N-(2-(Benzyl(2-((4-nitrophenyl)amino)-2-oxo-1-(4-(trifluoromethyl)phenyl)ethyl)amino)-2-oxoethyl)benzamide] | 27.3 ± 1.5 | 63.8 ± 4.8 | 22.4 ± 0.8 | – |
| O=C(Nc1ccc([N+](=O)[O-])cc1)C(c1ccc(C(F)(F)F)cc1)N(Cc1ccccc1)C(=O)CNS(=O)(=O)c1ccccc1 (stereo not shown) [Compound 17, N-Benzyl-N-(2-((4-nitrophenyl)amino)-2-oxo-1-(4-(trifluoromethyl)phenyl)ethyl)-2-(phenylsulfonamido)acetamide] | 57 ± 4.8 | 50.2 ± 3.4 | 40.8 ± 2.8 | – |
| O=C(Nc1ccc([N+](=O)[O-])cc1)C(c1ccc(C(F)(F)F)cc1)N(C(=O)c1ccc2ccccc2n1)c1ccccc1 (stereo not shown) [Compound 18, N-(2-((4-Nitrophenyl)amino)-2-oxo-1-(4-(trifluoromethyl)phenyl)ethyl)-N-phenylquinoline-2-carboxamide] | 25.1 ± 1.9 | 55.7 ± 3.5 | 20.1 ± 1.4 | – |
| Cc1ccc(N(C(=O)c2ccc3ccccc3n2)C(C(=O)Nc2ccc([N+](=O)[O-])cc2)c2ccc(C(F)(F)F)cc2)cc1 (stereo not shown) [Compound 19, N-(2-((4-Nitrophenyl)amino)-2-oxo-1-(4-(trifluoromethyl)phenyl)ethyl)-N-(p-tolyl)-quinoline-2-carboxamide] | 73.1 ± 5.7 | 50.1 ± 3.3 | 46.2 ± 4.1 | – |
| O=C(Nc1ccc([N+](=O)[O-])cc1)C(c1ccccc1)N(C(=O)/C=C/c1ccc(C(F)(F)F)cc1)c1ccccc1 (stereo not shown) [Compound 23, (E)-N-(2-((4-Nitrophenyl)amino)-2-oxo-1-phenylethyl)-N-phenyl-3-(4-(trifluoromethyl)-phenyl)acrylamide] | 30.3 ± 2.4 | 30.9 ± 2.3 | 26.1 ± 2.1 | – |
| Cc1ccc(N(C(=O)/C=C/c2ccc(C(F)(F)F)cc2)C(C(=O)Nc2ccc([N+](=O)[O-])cc2)c2ccccc2)cc1 (stereo not shown) [Compound 24, (E)-N-(2-((4-Nitrophenyl)amino)-2-oxo-1-phenylethyl)-N-(p-tolyl)-3-(4-(trifluoromethyl)-phenyl)acrylamide] | 22.1 ± 1.6 | 54.2 ± 4.1 | 20.4 ± 1.7 | – |
| O=C(Nc1ccc([N+](=O)[O-])cc1)C(c1ccccc1)N(Cc1ccccc1)C(=O)/C=C/c1ccc(C(F)(F)F)cc1 (stereo not shown) [Compound 25, (E)-N-Benzyl-N-(2-((4-nitrophenyl)amino)-2-oxo-1-phenylethyl)-3-(4-(trifluoromethyl)-phenyl)acrylamide] | 95.4 ± 8.1 | 129 ± 8.7 | 90.2 ± 8.5 | – |
